Source: patent US12516053B2, “Bcl-2 inhibitors” (BEIGENE, LTD., priority 2019, dated 2026)
Read-outs that look alike come from different tables or passages of the source.

What was measured:
[1] = target: recombinant human Bcl-2-G101V protein (Homo sapiens, UniProt P10415, G101V); test: Bcl-2-G101V TR-FRET assay; assay type: binding; conditions: TR-FRET, 0.1 nM Bcl-2-G101V, FITC labeled Bak peptide 5 nM; read-out: Biochemical assay (IC50, nM) Bcl-2 G101V
Source text: The IC50 for each compound was derived from fitting the data to the four-parameter logistic equation by Graphpad Prism software or Dotmatics.

[2] = system: RS4;11 (BCL-2 dependent acute lymphoblastic leukemia cell line); test: RS4;11 cell proliferation assay; assay type: cell-based; conditions: CellTiter-GLO, read-out: Cellular proliferation assay (IC50, nM) RS4
Experimental: RS4;11 Cell Proliferation Assay:
Each compound was serially diluted with 1 μM as the maximum concentration. To test the apoptotic effect of the compounds, the cells were seeded at 50,000 in 180 μl per well in 96-well plates and treated with 10-point dilution series of each compound for 48 hrs at 37° C. Cell viability was assessed after the treatment using CellTiter-GLO luminescent assay (Promega) according to the manufacturer's recommendations. Briefly, 30 μl of CellTiter-GLO reagent was added into 200 μl of cell culture, Mixture was agitated on an orbital shaker for 5 mins to ensure cell lysis followed by 7 mins incubation at room temperature to allow development and stabilization of luminescent signals, which corresponded to quantity of ATP and thus the quantity of metabolically active cells. Luminescent signals were measured using PHERAstar FS reader (BMG). Mean IC50 values for cell viability were determined with GraphPad Prism software.

BA/F3-BCL-2 cells = BA/F3-BCL-2 cells (Homo sapiens, UniProt P10415); test: BA/F3 cell proliferation assay, BCL-2 wild type; assay type: cell-based, Murine; conditions: 24 hrs treatment, 3% FBS, CellTiter-Glo, geometric mean of 3 experiments; read-out: Cellular proliferation assay (IC50, nM) Bcl-2 WT; BaF3 cell
Experimental: (§1) BA/F3 cell Proliferation Assay:
(§2) The cells were treated with a 10-point dilution series of compounds for 24 hrs. After the compound treatment, 30 μl of CellTiter-Glo reagent was added in each well. The effects on proliferation were determined using Cell TiterGlo reagent (Promega) according to the manufacturer's instructions. Luminescent signals were measured using PHERAstar FS plate reader (BMG Labtech). ICS50 values for cell viability were determined with GraphPad Prism software and were the geometric mean of 3 independent experiments.

[3] = system: Molt-4 (Bcl-xL-dependent ALL cell line); test: Molt-4 cell proliferation assay; assay type: cell-based; conditions: CellTiter-GLO, read-out: Cellular proliferation assay (IC50, nM) Molt-4
Source text: Molt-4 Cell Proliferation Assay:
Each compound was serially diluted with 10 1M as the maximum concentration. The anti-proliferative IC50s of these compounds were similarly determined as a percentage of viable cells upon treatment compared to the untreated control using CellTiter-GLO luminescent assay.

BA/F3-BCL-2 G101V cells = BA/F3-BCL-2 G101V cells (Homo sapiens, UniProt P10415, G101V, cells depend on it); test: BA/F3 cell proliferation assay, Bcl-2 G101V; assay type: cell-based, Murine; conditions: 24 hrs treatment, 3% FBS, CellTiter-Glo, geometric mean of 3 experiments; read-out: Cellular proliferation assay (IC50, nM) Bcl-2 G101V; BaF3 cell
Experimental: as §1, §2

[4] = target: Recombinant human Bcl-2 protein (Homo sapiens, UniProt P10415); test: Bcl-2 TR-FRET assay; assay type: binding; conditions: TR-FRET, 0.05 nM Bcl-2, FITC labeled Bak peptide 0.5 nM; read-out: Biochemical assay (IC50, nM) Bcl-2 WT
Experimental: Compounds disclosed herein were tested for blocking of Bcl-2 protein with its ligand in an assay based on Time-Resolved Fluorescence Resonance Energy Transfer (TR-FRET) methodology. Recombinant human 0.05 nM Bcl-2 protein was pre-incubated with a serial dilution of compounds disclosed herein (top final concentration is 1 uM or 0.1 uM or 0.02 uM or 0.01 uM, 10 points) at room temperature for 0.5 hour in an assay buffer containing 20 mM potassium phosphate buffer, pH 7.5, 50 mM NaCl, 1 mM EDTA, 0.05% Tween-20, 0.01% BSA. […] The inhibition percentage of Bcl-2 interaction with its ligand in presence of increasing concentrations of compounds was calculated based on the TR-FRET signals. The IC50 for each compound was derived from fitting the data to the four-parameter logistic equation by Graphpad Prism software or Dotmatics.

[5] = Homo sapiens, RS4-11, 48 hrs treatment

| IC50 [1] [nM] | IC50 ([2]; 48 hrs treatment) [nM] | IC50 (BA/F3-BCL-2 cells) [nM] | IC50 [3] [nM] | GI50 (BA/F3-BCL-2 G101V cells) [nM] | IC50 [4] [nM] | IC50 [2, 5] [nM] | IC50 ([3]; Homo sapiens, MOLT-4) [nM] | Molecule |
| --- | --- | --- | --- | --- | --- | --- | --- | --- |
| 0.94 | 1.1 | 1.1 | 4540 | 10.8 | 0.063 | – | – | 2-(2,3-dihydropyrrolo[3′,2′:56]pyrido[2,3-b][1,4]oxazin-1(6H)-yl)-N-((4-((((1r,4r)-4-hydroxy-4-methylcyclohexyl)methyl)amino)-3-nitrophenyl)sulfonyl)-4-(2-((S)-2-(2-isopropylphenyl)pyrrolidin-1-yl)-7-azaspiro[3,5]nonan-7-yl)benzamide [Example B3] |
| 0.86 | – | 0.3 | – | 9.8 | 0.025 | 0.47 | > 10000 | CC(C)c1ccccc1[C@@H]1CCCN1C1CC2(CCN(c3ccc(C(=O)NS(=O)(=O)c4cc5c(c([N+](=O)[O-])c4)N[C@H](C[C@H]4CC[C@H](O)CC4)CO5)c(Oc4cnc5[nH]ccc5c4)c3)CC2)C1 [Example A4, 2-((1H-pyrrolo[2,3-b]pyridin-5-yl)oxy)-N—(((R)-3-(((1R,4R)-4-hydroxycyclohexyl)methyl)-5-nitro-3,4-dihydro-2H-benzo[b][1,4]oxazin-7-yl)sulfonyl)-4-(2-((S)-2-(2-isopropylphenyl)pyrrolidin-1-yl)7-azaspiro[3,5]nonan-7-yl)benzamide] |
| 0.83 | – | 0.41 | – | 7.5 | 0.024 | 1 | 5160 | CC(C)c1ccccc1[C@@H]1CCCN1C1CC2(CCN(c3ccc(C(=O)NS(=O)(=O)c4cc5c(c([N+](=O)[O-])c4)N[C@H](C[C@H]4CC[C@@H](O)CC4)CO5)c(Oc4cnc5[nH]ccc5c4)c3)CC2)C1 [Example A5, 2-((1H-pyrrolo[2,3-b]pyridin-5-yl)oxy)-N—(((R)-3-(((1s,4S)-4-hydroxycyclohexyl)methyl)-5-nitro-3,4-dihydro-2H-benzo[b][1,4]oxazin-7-yl)sulfonyl)-4-(2-((S)-2-(2-isopropylphenyl)pyrrolidin-1-yl)-7-azaspiro[3,5]nonan-7-yl)benzamide] |
| 2.8 | – | – | – | – | 0.041 | 3.2 | > 10000 | CC(C)c1ccccc1[C@@H]1CCCN1C1CC2(C1)CN(c1ccc(C(=O)NS(=O)(=O)c3ccc(NC[C@H]4CC[C@](C)(O)CC4)c([N+](=O)[O-])c3)c(N3CCOc4nc5[nH]ccc5cc43)c1)C2 [Example B11, 2-(2,3-dihydropyrrolo[3′,2′:5,6]pyrido[2,3-b][1,4]oxazin-1(6H)-yl)-N-((4-((((1R,4R)-4-hydroxy-4-methylcyclohexyl)methyl)amino)-3-nitrophenyl)sulfonyl)-4-(6-((S)-2-(2-isopropylphenyl)pyrrolidin-1-yl)-2-azaspiro[3.3]heptan-2-yl)benzamide] |
| 3.7 | – | – | – | – | 0.058 | 3.6 | 7310 | CC(C)c1ccccc1[C@@H]1CCCN1C1CC2(C1)CN(c1ccc(C(=O)NS(=O)(=O)c3ccc(NCC4(F)CCOCC4)c([N+](=O)[O-])c3)c(N3CCOc4nc5[nH]ccc5cc43)c1)C2 [Example B12, (S)-2-(2,3-dihydropyrrolo[3′,2′:5,6]pyrido[2,3-b][1,4]oxazin-1(6H)-yl)-N-((4-(((4-fluorotetrahydro-2H-pyran-4-yl)methyl)amino)-3-nitrophenyl)sulfonyl)-4-(6-(2-(2-isopropylphenyl)pyrrolidin-1-yl)-2-azaspiro[3.3]heptan-2-yl)benzamide] |
| 5.2 | – | – | – | – | 0.14 | 8 | > 10000 | CC(C)c1ccccc1[C@@H]1CCCN1C1CC2(C1)CN(c1ccc(C(=O)NS(=O)(=O)c3ccc(NC[C@H]4COCCO4)c([N+](=O)[O-])c3)c(N3CCCOc4nc5[nH]ccc5cc43)c1)C2 [Example B15, N-((4-((((S)-1,4-dioxan-2-yl)methyl)amino)-3-nitrophenyl)sulfonyl)-2-(3,4-dihydro-2H-pyrrolo[3′,2′:5,6]pyrido[2,3-b][1,4]oxazepin-1(7H)-yl)-4-(6-((S)-2-(2-isopropylphenyl)pyrrolidin-1-yl)-2-azaspiro[3,3]heptan-2-yl)benzamide] |
